These results are taken from patent US20220088102A1, “CROTON LECHLERI COMPOSITIONS AND THEIR USE IN THE TREATMENT OF CYSTIC FIBROSIS” (priority 2020, published 2022).

The test system of one series is DNA of the cells. Particulars: Chen 1994, cited from earlier work.
The nature of series [1]: In vitro Permeation Test (IVPT), Franz diffusion cell, Strat-M membranes. The source says: All reference to skin includes references to epithelial skin and epithelial layer of the lungs, nose, mouth and throat. IVPT is a flux measurement that is common to those skilled in the art to evaluate topical drugs inclusive to topical delivery to the lungs, nose, mouth and throat.

The subject of a further series is wound healing. As to conditions: in vivo in rats, Pieters et al 1995; cited from earlier work.

Each structure is given as a SMILES string.

Consider `Oc1cc(O)c2c(c1)O[C@H](c1cc(O)c(O)c(O)c1)[C@@H](O)C2` [Gallocatechin, gallocatechin], for which the “effect on cell proliferation” value with DNA of the cells is “slightly stimulating to cell proliferation”. For the same compound, the “Flux (J)” value in series [1] (component permeating from AB-101 100% Lot 1) stood at 18.25 ug/cm^2/hr; in series [1] (component permeating from AB-101 100% Lot X), 4.33 ug/cm^2/hr.
As for `COc1ccc([C@H]2Oc3c(OC)cc(CCCO)cc3[C@@H]2CO)cc1OC` [dimethylcedrusin, 3′,4-0-dimethylcedrusin], the healing effects entry in the series on DNA of the cells (in the Ecuadorian sap) was “showed little healing effects”. The wound healing activity entry in the series on wound healing is listed as “improved wound healing in vivo”.
